Literature values, collected in patent publication US20060079683A1, “Arylthiobenzylpiperidine derivatives” (priority 2004, published 2006).

Experiments:
Settings in all cases: B. Borowsky, et al., Nature Medicine, 2002
[1] = molecular target: T1, MCH1 receptor (Rattus norvegicus, UniProt P97639)
T1 construct: host or cells: living rat, endogenous receptor

[2] = molecular target: T1, MCH1 receptor; remark: listed apart in the source
[3] = molecular target: T2, MCH1 receptor (Cavia porcellus, UniProt H0VKT7)
T2 construct: host or cells: living guinea pig, endogenous receptor
T2 sequence (H0VKT7 1-355): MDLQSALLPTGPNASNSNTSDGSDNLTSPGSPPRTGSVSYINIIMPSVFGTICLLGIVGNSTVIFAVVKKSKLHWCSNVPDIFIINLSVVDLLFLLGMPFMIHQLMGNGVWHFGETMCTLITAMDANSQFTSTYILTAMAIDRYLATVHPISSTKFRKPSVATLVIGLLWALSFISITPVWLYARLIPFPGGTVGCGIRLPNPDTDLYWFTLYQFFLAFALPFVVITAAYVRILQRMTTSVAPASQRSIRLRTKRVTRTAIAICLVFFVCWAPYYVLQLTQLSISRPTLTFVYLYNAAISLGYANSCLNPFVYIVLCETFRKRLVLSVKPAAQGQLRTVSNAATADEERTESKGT

T1 sequence (P97639 whole entry): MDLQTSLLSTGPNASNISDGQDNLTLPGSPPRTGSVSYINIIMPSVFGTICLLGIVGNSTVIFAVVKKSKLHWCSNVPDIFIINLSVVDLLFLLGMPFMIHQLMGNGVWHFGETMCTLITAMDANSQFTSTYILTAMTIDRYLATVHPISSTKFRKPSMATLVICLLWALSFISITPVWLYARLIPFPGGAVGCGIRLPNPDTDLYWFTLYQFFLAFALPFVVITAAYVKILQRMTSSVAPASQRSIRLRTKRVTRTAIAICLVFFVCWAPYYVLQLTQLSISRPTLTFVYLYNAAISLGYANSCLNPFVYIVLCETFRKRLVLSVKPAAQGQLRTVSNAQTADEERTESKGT

For `COCC1=C(C(=O)OC)[C@H](c2ccc(F)c(F)c2)N(C(=O)NCCCN2CCC(c3cccc(NC(C)=O)c3)CC2)C(=O)N1` [SNAP-7941], the “profile in behavioral model of depression and/or anxiety: rat forced-swim” value [1] is given as “profile similar to clinically used anti-depressants and anxiolytics”, the “profile in behavioral model of depression and/or anxiety: rat social interaction” value [2] is given as “profile similar to clinically used anti-depressants and anxiolytics” and the “profile in behavioral model of depression and/or anxiety: guinea pig maternal-separation vocalization” value [3] is given as “profile similar to clinically used anti-depressants and anxiolytics”.
